Measured values reported in patent publication US20120142601A1, “Modified Peptides and Uses Thereof” (MUSC Foundation for Research Development, priority 2009, published 2012).
pKd: −log10 of the molar value. Non-standard residues stand in square brackets, D forms with d. Residues, ends and D or L forms follow the SMILES beside them. No end group written: not given here. *: point of attachment. NMeR = CN[C@@H](CCCNC(=N)N)C(=O)O; Tle = CC(C)(C)[C@H](N)C(=O)O; X1 = C[C@@H](CCCCCN)C(=O)*

Columns and labels:
Catalepsy (bar test) = conditions: 5 mg/kg
Experimental: (§1) In laboratory tests, catalepsy is characterized by the inability of an animal to correct its position after placement in an unnatural posture. Catalepsy tests may be greatly influenced by a number of variables. These include stress-induced inhibition of catalepsy caused by a new environment and the contribution of learned “pseudo-catalepsy” that may result upon repeated measures with the same animal. To circumvent these potential confounding factors, tests are performed on an animal only once in a quiet, controlled environment,
(§2) Finally, the bar test was utilized to measure catalepsy as a predictor of EPSEs in humans.

[1] = Hypothermia studies in the male Sprague-Dawley rat with various compounds; type: in vivo; conditions: dose 1 mg/kg in saline
Experimental: Hypothermia studies in the male Sprague-Dawley rat were conducted using different compounds (dosed in saline) and the results are summarized in Table 1. For each compound, the maximum decrease in temperature (Δtemp) and the area under the curve for hypothermia versus a saline control (AUC) were measured.

[2] = cited from earlier work
NTR1 = NTR1 (Homo sapiens, UniProt P30989); conditions: cited from earlier work
Sequence of NTR1 (P30989 whole entry, species assumed): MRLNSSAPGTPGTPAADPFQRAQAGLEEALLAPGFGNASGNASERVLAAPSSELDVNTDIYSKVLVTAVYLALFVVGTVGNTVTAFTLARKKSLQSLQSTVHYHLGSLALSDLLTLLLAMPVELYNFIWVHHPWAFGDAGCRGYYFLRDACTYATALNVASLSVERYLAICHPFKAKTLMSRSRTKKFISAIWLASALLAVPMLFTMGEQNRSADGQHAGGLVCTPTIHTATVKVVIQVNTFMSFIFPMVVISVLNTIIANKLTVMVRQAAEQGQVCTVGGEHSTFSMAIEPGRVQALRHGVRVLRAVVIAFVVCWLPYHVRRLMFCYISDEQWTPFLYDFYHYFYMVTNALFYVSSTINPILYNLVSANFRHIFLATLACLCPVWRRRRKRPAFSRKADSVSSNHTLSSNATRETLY

[3] = rat, in vivo
Experimental: as §1, §2

[4] = in vivo; cited from earlier work

CC(C)C[C@H](NC(=O)[C@@H](NC(=O)[C@H](Cc1ccc(O)cc1)NC(=O)[C@@H]1CCCN1C(=O)[C@H](CCCNC(=N)N)NC(=O)[C@@H](C)CCCCCN)C(C)(C)C)C(=O)O [ABS-201] (X1-RPY[Tle]L-OH)
catalepsy after peripheral administration (Catalepsy (bar test)): does not induce catalepsy

N-Me-L-Arg-L-Lys-L-Pro-L-Trp-t-Leu-L-Leu ([NMeR]KPW[Tle]L) [SEQ ID NO:2, reference compound]
AUC (area under the curve for hypothermia versus saline control) [1]: 700
Δtemp (maximum decrease in temperature) [1]: −4.2
central activity after oral administration ([2]; oral): not able to elicit central activity
loss of binding affinity at NTR1 (NTR1): 700 fold

O=C(CCCN1CCC(O)(c2ccc(Cl)cc2)CC1)c1ccc(F)cc1 [Haloperidol]
duration of induced catalepsy [3]: greater than 30 sec

N-Me-L-Arg-L-Lys-L-Pro-L-neoTyr-t-Leu-L-Leu [NT69L]
hyperactivity induced by cocaine and d-amphetamine [4]: attenuated hyperactivity
hypothermic effect ([2]; 1 mg/kg injection, 90 min post-injection): −5.3 °C
effect of chronic administration on hypothermic effect ([2]; chronic administration): tolerance to its hypothermic effect
hypothermic response after oral administration ([2]; oral): only a slight hypothermic response
pKd (NTR1): 8.81
